# Laboratory results taken from patent publication US8765742B2, “Crystalline methylthioninium chloride hydrates” (Wista Laboratories Ltd., priority 2009, dated 2014).
# Experiment: Thermodynamic stability of the crystalline hydrate form at room temperature as a function of relative humidity
# Assay type: physicochemical
# Details: over the whole range of relative humidity
smiles,measurement,value
"CN(C)c1ccc2nc3ccc(=[N+](C)C)cc-3sc2c1 [Form B, methylthioninium chloride dihydrate]",thermodynamic stability at room temperature,thermodynamically metastable
